Assays:
Assay type in all cases: binding
[1] = biological target: T1, TRIM33B (Homo sapiens, UniProt Q9UPN9); test: Thermal shift assay, TRIM33B
T1 construct: Bromosporine with recombinant human bromodomain proteins; made in house
T1 sequence (Q9UPN9 957-1063 isoform Q9UPN9-2 limits assumed): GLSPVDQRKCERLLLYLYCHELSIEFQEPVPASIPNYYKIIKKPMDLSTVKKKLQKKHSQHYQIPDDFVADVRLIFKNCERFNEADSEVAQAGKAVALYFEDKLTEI
Description: (§1) II.VII Thermal Shift Assay[6]
(§2) Thermal melting experiments were carried out using an Mx3005p Real Time PCR machine (Stratagene). Proteins were buffered in 10 mM HEPES pH 7.5, 500 mM NaCl and assayed in a 96-well plate at a final concentration of 2 μM in 20 μL volume. Compounds were added at a final concentration of 50 μM. SYPRO Orange (Molecular Probes) was added as a fluorescence probe at a dilution of 1:1000. Excitation and emission filters for the SYPRO-Orange dye were set to 465 nm and 590 nm, respectively. The temperature was raised with a step of 3 °C per minute from 25 °C to 96 °C and fluorescence readings were taken at each interval. The unfolding curves were fitted using the Boltzmann equation to determine the middle point of the transition.

[2] = biological target: T2, ATAD2A (Homo sapiens, UniProt Q6PL18); test: Thermal shift assay, ATAD2A
T2 construct: purchased in-house (SGC bromodomain thermal shift / AlphaScreen panel)
T2 sequence (Q6PL18 1-1390): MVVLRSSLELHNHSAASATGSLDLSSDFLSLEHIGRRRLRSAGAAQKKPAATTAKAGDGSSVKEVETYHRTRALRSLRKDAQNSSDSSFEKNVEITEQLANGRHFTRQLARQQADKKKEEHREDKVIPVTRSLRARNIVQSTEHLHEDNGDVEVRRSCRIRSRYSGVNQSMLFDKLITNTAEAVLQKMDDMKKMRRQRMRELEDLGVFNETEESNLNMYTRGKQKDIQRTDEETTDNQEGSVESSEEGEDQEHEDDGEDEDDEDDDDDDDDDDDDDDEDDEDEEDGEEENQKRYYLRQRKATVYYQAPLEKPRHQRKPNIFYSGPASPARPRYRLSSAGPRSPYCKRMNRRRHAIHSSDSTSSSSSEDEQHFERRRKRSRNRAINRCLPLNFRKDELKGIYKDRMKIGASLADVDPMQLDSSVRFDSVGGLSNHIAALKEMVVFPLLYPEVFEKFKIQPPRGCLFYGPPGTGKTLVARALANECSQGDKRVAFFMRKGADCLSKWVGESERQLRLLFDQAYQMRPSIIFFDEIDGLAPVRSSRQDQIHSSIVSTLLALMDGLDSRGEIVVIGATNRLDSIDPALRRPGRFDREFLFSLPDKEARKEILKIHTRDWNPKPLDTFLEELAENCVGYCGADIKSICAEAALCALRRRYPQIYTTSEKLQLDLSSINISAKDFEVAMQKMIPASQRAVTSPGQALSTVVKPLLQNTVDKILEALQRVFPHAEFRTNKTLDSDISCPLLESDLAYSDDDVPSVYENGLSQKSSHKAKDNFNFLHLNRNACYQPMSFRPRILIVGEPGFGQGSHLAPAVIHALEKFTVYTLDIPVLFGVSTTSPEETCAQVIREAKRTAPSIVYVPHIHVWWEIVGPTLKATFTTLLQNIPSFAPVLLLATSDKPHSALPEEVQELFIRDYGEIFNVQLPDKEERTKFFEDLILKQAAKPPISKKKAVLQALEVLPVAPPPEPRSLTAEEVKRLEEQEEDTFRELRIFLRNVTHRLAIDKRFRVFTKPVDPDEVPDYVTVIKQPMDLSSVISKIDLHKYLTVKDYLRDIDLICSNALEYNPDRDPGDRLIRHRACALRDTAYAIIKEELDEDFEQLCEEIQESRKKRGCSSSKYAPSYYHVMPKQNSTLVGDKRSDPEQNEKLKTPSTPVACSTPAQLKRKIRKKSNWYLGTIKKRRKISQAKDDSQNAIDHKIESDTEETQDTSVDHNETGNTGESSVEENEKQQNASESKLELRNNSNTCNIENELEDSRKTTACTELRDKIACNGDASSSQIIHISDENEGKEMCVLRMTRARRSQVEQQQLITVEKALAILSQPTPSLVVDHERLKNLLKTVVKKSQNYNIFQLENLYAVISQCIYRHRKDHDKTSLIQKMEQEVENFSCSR
Description: as §1, §2

[3] = biological target: T3, SMARCA4 (Homo sapiens, UniProt P51532); test: Thermal shift assay, SMARCA4
T3 construct: purchased in-house (SGC bromodomain thermal shift / AlphaScreen panel)
T3 sequence (P51532 whole entry): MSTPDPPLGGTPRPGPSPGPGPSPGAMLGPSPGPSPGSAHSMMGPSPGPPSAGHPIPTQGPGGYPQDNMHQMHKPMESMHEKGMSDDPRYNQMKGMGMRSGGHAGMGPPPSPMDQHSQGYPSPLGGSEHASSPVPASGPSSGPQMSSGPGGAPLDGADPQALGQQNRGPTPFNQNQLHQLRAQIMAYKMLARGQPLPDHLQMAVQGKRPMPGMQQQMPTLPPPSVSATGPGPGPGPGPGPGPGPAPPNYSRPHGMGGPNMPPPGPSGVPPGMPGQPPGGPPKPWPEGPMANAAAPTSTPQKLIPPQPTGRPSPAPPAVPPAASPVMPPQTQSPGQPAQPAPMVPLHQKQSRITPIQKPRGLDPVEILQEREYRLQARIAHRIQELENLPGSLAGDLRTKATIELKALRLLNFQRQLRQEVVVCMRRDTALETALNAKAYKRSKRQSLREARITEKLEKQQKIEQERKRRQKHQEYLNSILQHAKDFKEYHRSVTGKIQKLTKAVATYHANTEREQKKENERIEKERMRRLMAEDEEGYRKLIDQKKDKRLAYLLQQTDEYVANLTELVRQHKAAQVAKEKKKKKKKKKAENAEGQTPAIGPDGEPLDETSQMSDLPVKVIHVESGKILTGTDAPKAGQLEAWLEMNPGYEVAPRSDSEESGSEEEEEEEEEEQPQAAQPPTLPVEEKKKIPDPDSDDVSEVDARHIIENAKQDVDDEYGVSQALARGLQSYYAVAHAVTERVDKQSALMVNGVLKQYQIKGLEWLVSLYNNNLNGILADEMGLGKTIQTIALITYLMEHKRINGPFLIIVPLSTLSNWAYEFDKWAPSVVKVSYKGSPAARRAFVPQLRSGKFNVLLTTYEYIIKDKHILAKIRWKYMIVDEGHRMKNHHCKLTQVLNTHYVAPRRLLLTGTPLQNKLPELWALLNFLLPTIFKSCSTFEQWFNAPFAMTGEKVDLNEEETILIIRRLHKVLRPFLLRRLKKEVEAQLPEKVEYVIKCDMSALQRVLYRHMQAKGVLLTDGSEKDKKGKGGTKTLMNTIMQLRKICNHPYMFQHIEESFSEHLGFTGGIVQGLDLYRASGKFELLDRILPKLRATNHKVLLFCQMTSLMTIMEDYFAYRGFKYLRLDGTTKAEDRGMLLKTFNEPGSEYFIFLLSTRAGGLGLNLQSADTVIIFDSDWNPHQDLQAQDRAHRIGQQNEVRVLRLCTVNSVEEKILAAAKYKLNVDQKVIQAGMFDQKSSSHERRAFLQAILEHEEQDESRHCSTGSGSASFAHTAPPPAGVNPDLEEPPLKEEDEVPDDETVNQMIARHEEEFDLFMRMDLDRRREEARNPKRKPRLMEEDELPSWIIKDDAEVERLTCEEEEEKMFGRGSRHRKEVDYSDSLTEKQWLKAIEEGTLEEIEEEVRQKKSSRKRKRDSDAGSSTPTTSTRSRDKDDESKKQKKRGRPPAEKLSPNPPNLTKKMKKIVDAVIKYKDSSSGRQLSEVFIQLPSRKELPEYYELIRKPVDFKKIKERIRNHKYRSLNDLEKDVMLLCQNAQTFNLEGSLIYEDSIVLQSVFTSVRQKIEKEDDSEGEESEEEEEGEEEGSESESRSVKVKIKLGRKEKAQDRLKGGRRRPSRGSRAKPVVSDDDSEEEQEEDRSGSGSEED

Thermal stabilisation, TRIM33B ([1]; 10 µM compound concentration)	Thermal stabilisation, ATAD2A ([2]; 10 µM compound concentration)	Thermal stabilisation, SMARCA4 ([3]; 10 µM compound concentration)	SMILES	Thermal stabilisation, TRIM33B ([1]; 50 μM compound)	Thermal stabilisation, ATAD2A ([2]; 50 μM compound)	Thermal stabilisation, SMARCA4 ([3]; 50 μM compound)
–	–	–	C[C@H]1CCCN1Cc1nc2cc(NC(=O)c3ccc4c(cnn4C)c3)ccc2[nH]1 [Compound 92]	-0.28	0.56	0.035
0.03	0.67	0.12	CCOC(=O)Nc1cc(-c2ccc(C)c(NS(C)(=O)=O)c2)nn2c(C)nnc12 [Bromosporine, reference compound]	–	–	–
–	–	–	COC(=O)c1ccc(C(=O)Nc2ccc3[nH]c(CN4CCCCC4)nc3c2)cc1 [Compound 1]	0.02	0.54	0.135

Source: paper PMC6348381, “Discovery of an MLLT1/3 YEATS Domain Chemical Probe” (Angewandte Chemie (International Ed. in English), 2018)
